From the METLIN SMRT retention time set (Domingo-Almenara et al. 2019)

Test: gradient 5% acetonitrile 3 min, to 50% in 2 min, to 85% in 15 min, held 3 min, 100 µL/min
Settings: column: Zorbax Extend-C18 2.1 x 50 mm; eluents: water / acetonitrile, 0.1% formic acid
Summary of the method: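 The mobile phases were water and acetonitrile, each with 0.1% formic acid, pumped at 100 μL/min through a Zorbax Extend-C18 column (2.1 × 50 mm, 1.8 μm). Pure standards were injected as mixtures of ~100 molecules and detected by a quadrupole time-of-flight mass spectrometer in positive and negative ionization mode. Retention time came from computationally picked adduct peaks, each inspected by hand.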

| SMILES | RP-LC retention time |
| --- | --- |
| CCNC(=O)N1CC(n2cc(C(=O)NCCCOC)nn2)C1 | 580 s |
| CCN(CC)CCN(CC(=O)N1CCNCC1)S(=O)(=O)c1ccc(C)c(C)c1 | 576 s |
| CCN(CC)S(=O)(=O)c1cc(-c2nnc(-c3ccc(OC)c(OC)c3)o2)ccc1C | 991 s |
| Cc1ccccc1C(=O)N1C(C(=O)NCC(C)C)COC12CCN(C(=O)C(C)(C)C)CC2 (stereo unspecified) | 782 s |
| CCc1ccccc1NS(=O)(=O)c1c(C)sc(C)c1-c1cc(C(F)(F)F)on1 | 1240 s |
| CCCS(=O)(=O)c1nc2ccc(NS(=O)(=O)c3cc(C)c(C)cc3C)cc2s1 | 1040 s |
| Cc1nn(C)c(=O)c2cc(S(=O)(=O)NCc3ccc(F)cc3)cn12 | 766 s |
| Cc1nc(-c2cccs2)c(CCC(=O)Nc2ccccc2C(F)(F)F)s1 | 923 s |
| COc1ccc(OC)c(S(=O)(=O)N2CCCC(C(=O)N3CCOCC3)C2)c1 (stereo unspecified) | 664 s |
| Cc1ccc(Cl)cc1NS(=O)(=O)c1cc2c(s1)CCN(C(=O)C1CC1)C2 | 901 s |
| CCc1ccccc1N1C(=O)CN(S(=O)(=O)CC)CC1(C)C(=O)NC1CCCC1 (stereo unspecified) | 826 s |
| COc1ccc2c(c1)C1(CCN(C(=O)c3ccc(C)cc3)C1)C(=O)N2 (stereo unspecified) | 727 s |
| CCC(C)NC(=O)N1CCCN(C2=NS(=O)(=O)C(c3cccc(Cl)c3)=C2C)CC1 (stereo unspecified) | 837 s |
| Cc1ccc(-c2cc(C(F)(F)F)on2)cc1S(=O)(=O)N1CCCCC1C (stereo unspecified) | 852 s |
| Cc1ccc(NC(=O)C2CCCN(c3cc(=O)n(C)c(=O)n3C)C2)cc1 (stereo unspecified) | 725 s |
| COc1ccc(OC)c(C(O)CN2CCN(c3cccc(C)c3)CC2)c1 (stereo unspecified) | 712 s |
| Cc1ccc(NC(=O)C2CCN(S(=O)(=O)c3c(C)[nH]c(C)c3C(=O)N3CCCC3)CC2)cc1F | 753 s |
| COc1ncc(C(=O)NCCc2ccc(S(N)(=O)=O)cc2)cn1 | 608 s |
| COc1ccc(OC)c(NC(=O)C2=Cc3cc(Br)ccc3OC2)c1 | 1150 s |
| CCCS(=O)(=O)N1CCCC(Cn2cc(COc3ccc4c(c3)CCC4)nn2)C1 (stereo unspecified) | 997 s |
| Cc1cc(N2CCN(C(=O)c3ccc(N(C)C)cc3)CC2)nc2nnc(C)n12 | 579 s |
| CCOCC(=O)N1CCCN(C2=NS(=O)(=O)C(c3ccc(CC)cc3)=C2C)CC1 | 790 s |
| O=C(c1cn2ccccc2n1)N1CCN(c2ccccc2F)CC1 | 652 s |
| COc1cccc(NC(=O)C2CCCN(S(=O)(=O)c3c[nH]c(C(=O)N4CCCCCC4)c3)C2)c1 (stereo unspecified) | 882 s |
| CCCN1C(=O)c2ccccc2C(C(=O)NC2CCCCC2)C1c1cc(OC)c(OC)c(OC)c1 (stereo unspecified) | 838 s |
| CCN1c2cc(F)ccc2C(=O)NC12CCN(C(=O)c1cccc(F)c1)CC2 | 791 s |
| Cc1noc([C@@H]2CN(Cc3ccc(Cl)cc3F)C[C@H]2CO)n1 | 600 s |
| CCn1c(=O)sc2cc(S(=O)(=O)N3CCC(C(=O)Nc4ccc(F)cc4)CC3)ccc21 | 917 s |

| SMILES | RP-LC retention time |
| --- | --- |
| O=C(C1CCCN(c2ncnc3c2nc2n3CCCCC2)C1)N1CCOCC1 (stereo unspecified) | 1270 s |
| C=Cc1ccc(CN2CCCN(c3ncccc3-c3nc(C4CC4)no3)CC2)cc1 | 757 s |
| O=C(O)c1cnc(NCc2cccnc2)nc1-c1cccnc1 | 875 s |
| CCOc1ccc(CNC2CCN(c3ccc(C(=O)NC4CC4)cn3)C2)cc1 (stereo unspecified) | 578 s |
| CN(C)c1cc(N2CCCC(NC(=O)c3cccn3C)C2)ncn1 (stereo unspecified) | 571 s |
| CCC(=O)CCCCC[C@@H]1NC(=O)[C@H]2CCCCN2C(=O)[C@H]([C@H](C)CC)NC(=O)[C@H](Cc2cn(OC)c3ccccc23)NC1=O | 965 s |
| Cc1cc(N2CCN(C)CC2)nc2ccc(NC(=S)NC3CCCC(C)C3C)cc12 (stereo unspecified) | 639 s |
| CCc1cc(=O)n(CC(=O)Nc2ccc(OC)c(F)c2)c(N)n1 | 788 s |
| COc1cc(C(=O)Nc2nc3c(C)cc(Cl)cc3s2)cc(OC)c1OC | 1120 s |
| CCc1cc(N2CCN(C(=O)c3ccc(N(C)C)cc3)CC2)nc2nnc(C)n12 | 599 s |
| CCN1CCN(c2ccc(NC(=O)c3ccc(Cl)s3)cn2)C1=O | 742 s |
| Clc1cccc(-c2nc3ccc(Cl)cn3c2Nc2ccc3c(c2)OCO3)c1 | 978 s |
| CCOc1cc(C)c(C)cc1S(=O)(=O)Nc1ccc(Cl)cn1 | 961 s |
| Cc1noc(/C=C\c2ccc(S(=O)(=O)N3CCCCC3C)cc2)c1NC(=O)C1CC1 (stereo unspecified) | 938 s |
| CC(C)(C)OC(=O)Cn1cnc2c(-c3cccc(Cl)c3)csc2c1=O | 1130 s |
| CCCN1C(=O)c2cc(C(=O)NCc3ccccc3)nn2CC1(C)C(=O)NC1CCCC1 (stereo unspecified) | 605 s |
| CC(C)(C)c1nnc(-c2ccc3c(c2)OCO3)o1 | 900 s |
| O=C(Cn1nc2n(c1=O)CCCCC2)NCc1ccccc1Cl | 719 s |
| COc1ccc(Cl)cc1C(=O)NC1(c2nc(C)no2)CCCCC1 | 1010 s |
| O=c1ccc(N2CCCN(S(=O)(=O)c3ccccc3F)CC2)nn1-c1ccc(Cl)cc1 | 925 s |
| CCOC(=O)C1CCN(c2cc3c(cc2NC(=O)NCC(C)C)n(C)c(=O)n3C)CC1 | 685 s |
| CCc1nnc([C@@H]2CC(F)(F)CN2S(=O)(=O)c2ccc(C)cc2)o1 | 696 s |
| CCOc1ccccc1NC(=O)C1CCN(c2cncnc2N2CCCCC2)CC1 | 742 s |
| O=C(CSc1nnc2c3sc(N4CCCC4)nc3ncn12)N1CCN(c2ccc(F)cc2)CC1 | 834 s |
| CCC1CCCCN1C(=O)c1cnc2nc(C)ccc2c1Nc1ccc(CC(=O)O)cc1 (stereo unspecified) | 598 s |
| CCCNC(=O)C1CCCN(c2ccc(SCC(=O)Nc3c(F)cccc3F)nn2)C1 (stereo unspecified) | 628 s |
| O=C(Nc1cnccn1)c1ccc(S(=O)(=O)N2CCCCCC2)cc1 | 766 s |

The remaining lines, values ahead:

| RP-LC retention time | SMILES |
| --- | --- |
| 987 s | CN(C)S(=O)(=O)c1ccc2c(c1)N(CC(=O)NCc1ccccc1)C(=O)C1CCCCN21 (stereo unspecified) |
| 841 s | Cc1nn(-c2ccc(C(=O)NCc3cccs3)cc2)c2c1C(=O)CC(C)(C)C2 |
| 921 s | O=C(CCn1nnc2cc(-c3noc(Cc4ccc(Cl)cc4)n3)ccc21)N1CCCC1 |
| 1040 s | Cc1ccc(-c2cc(C(=O)N(C)Cc3ccccc3)c(C)[nH]2)cc1C |
| 704 s | CN(Cc1nc(Cn2ccn3nc(-c4ccc(F)cc4)cc3c2=O)no1)C1CCCCC1 |
| 728 s | Cc1ccc(-c2nc3cccnc3n2C2CCN(S(=O)(=O)c3cccnc3)C2)cc1 (stereo unspecified) |
| 594 s | CC(C)NC(=O)CN1CCN(c2cc(C(=O)O)c3cc(NC(=O)c4ccccc4F)ccc3n2)CC1 |
| 608 s | Cc1cc(=O)n(CC(=O)N2CCc3ccccc32)c(N)n1 |
| 1020 s | CC(C)Oc1ccc(-c2noc(CN3N=NC4C(=O)N(c5ccccc5)C(=O)C43)n2)cc1 (stereo unspecified) |
| 922 s | COc1ccc(-c2noc(C3CC(=O)N(c4cc(C)cc(C)c4)C3)n2)cc1OC (stereo unspecified) |
| 893 s | COc1ccc(CCNC(=O)C2CCN(S(C)(=O)=O)c3cc(C)ccc3O2)cc1 (stereo unspecified) |
| 638 s | Cc1ccc(C)c(NC(=O)NCCn2c(-c3ccncc3)nc3cccnc32)c1 |
| 686 s | CCOc1cccc(CNC(=O)C2CCN(Cc3cn(C)c4ccccc34)CC2)c1 |
| 968 s | COc1cccc(-c2noc(Cc3nnc(-c4cc(F)cc(F)c4)o3)n2)c1OC |
| 962 s | CCOc1ccccc1-c1noc(CN2N=NC3C(=O)N(c4cc(OC)cc(OC)c4)C(=O)C32)n1 (stereo unspecified) |
| 1180 s | Cc1ccc2c(c1)OCC(=O)N2Cc1nc(-c2cccc(Br)c2)no1 |

| RP-LC retention time | SMILES |
| --- | --- |
| 912 s | CC(C)Cn1cc(S(=O)(=O)Nc2cccc(F)c2)c2cccnc21 |
| 605 s | Cc1nn(CC(=O)N2CCC(N3CCCCC3)CC2)c(=O)c2nn(-c3ccccc3)c(C)c12 |
| 658 s | COc1ccccc1CCC(=O)NC(C)C(=O)Nc1nc2ccccc2[nH]1 (stereo unspecified) |
| 664 s | CC1(C)C(=O)N(CC(=O)Nc2c3c(nc4ccccc24)CCCC3)c2ccccc21 |
| 1040 s | CCc1nn2c(nnc3c(=O)n(CCc4c[nH]c5ccccc45)ccc32)c1-c1ccc(F)cc1 |
| 766 s | COc1ccc(-c2ccc(N3CCN(c4ccccc4)CC3)nn2)cc1S(=O)(=O)N1CCOCC1 |
| 973 s | CCOc1ccc(-c2noc(Cn3cnc4c(cnn4-c4ccc(OC)cc4)c3=O)n2)cc1OC |
| 1380 s | CCOc1cccc(-c2noc(CN3C(=O)COc4ccc(C(C)(C)C)cc43)n2)c1 |
| 700 s | CC(C)Cn1c(CCNC(=O)c2ccc(F)cc2)nc2cccnc21 |
| 1180 s | Cc1nc2cc(-c3noc(-c4ccc(Br)cc4)n3)ccc2n(C)c1=O |
| 1080 s | Cc1ccccc1-n1c(=O)c2sccc2n(Cc2nc(-c3ccc(C(C)(C)C)cc3)no2)c1=O |
| 1060 s | COc1ccc(Cl)cc1-c1nc(-c2ccc3oc(C)nc3c2)no1 |
| 1080 s | Cc1ccccc1-c1noc(C2CCCN2C(=O)Nc2cccc(Cl)c2)n1 (stereo unspecified) |
| 933 s | CC(C)c1noc(-c2cc(=O)n(CC(=O)NCc3cccs3)c3ccccc23)n1 |
| 1020 s | COc1cccc(-c2noc(CN3C(=O)COc4ccc(Cl)cc43)n2)c1OC |
